Source: patent US20110230476A1, “PI3 KINASE INHIBITORS AND USES THEREOF” (AVILA THERAPEUTICS, INC., priority 2009, published 2011)

Target: T1, PI3Kα (p110α/p85α) (Homo sapiens, UniProt P42336)
T1 construct: purchased BPS Bioscience (San Diego, Calif.) or Millipore (Billerica, Mass.)
Assay: HTRF assay, potency against active PI3Kα
Format: biochemical
Settings: HTRF; [ATP]=50 μM, [di-C8-PIP2]=10 μM; 30 min pre-incubation; read-out: PI3Kα Inhibition
Procedure: Homogeneous Time Resolved Fluorescence (HTRF) Assay Protocol for Potency Assessment Against the Active Forms of PI3Kα, PI3Kβ, and PI3Kγ
The mechanics of the assay platform are best described by the vendor (Millipore, Billerica, Mass.) on their website at the following URL: www.millipore.com/coa/tech1/74jt4z.
Briefly, Stop solution (Stop A, #33-007 and Stop B, #33-009; 3:1 ratio) and Detection Mix (from DMC, #33-015 with DMA, #33-011 and DMB, #33-013; 18:1:1 ratio) were prepared as recommended by the manufacturer about 2 hrs prior to use. […] Lipid kinase reactions were started with the addition of 5 μL of ATP solution, mixed for 15 sec on a rotary plate shaker and incubated for 30-60 minutes at 25° C. Next, reactions were stopped with a 5 μL addition of Stop solution immediately followed by a 5 μL volume of Detection Mix. […] At the conclusion of each assay, the HTRF ratio from fluorescence emission values for each well was calculated and % Inhibition determined from averaged controls wells (+/−PI3K enzyme). % Inhibition values for each compound were then plotted against inhibitor concentration to estimate IC50 from log [Inhibitor] vs Response, Variable Slope model in GraphPad Prism from GraphPad Software (San Diego, Calif.).

T1 sequence (P42336 whole entry): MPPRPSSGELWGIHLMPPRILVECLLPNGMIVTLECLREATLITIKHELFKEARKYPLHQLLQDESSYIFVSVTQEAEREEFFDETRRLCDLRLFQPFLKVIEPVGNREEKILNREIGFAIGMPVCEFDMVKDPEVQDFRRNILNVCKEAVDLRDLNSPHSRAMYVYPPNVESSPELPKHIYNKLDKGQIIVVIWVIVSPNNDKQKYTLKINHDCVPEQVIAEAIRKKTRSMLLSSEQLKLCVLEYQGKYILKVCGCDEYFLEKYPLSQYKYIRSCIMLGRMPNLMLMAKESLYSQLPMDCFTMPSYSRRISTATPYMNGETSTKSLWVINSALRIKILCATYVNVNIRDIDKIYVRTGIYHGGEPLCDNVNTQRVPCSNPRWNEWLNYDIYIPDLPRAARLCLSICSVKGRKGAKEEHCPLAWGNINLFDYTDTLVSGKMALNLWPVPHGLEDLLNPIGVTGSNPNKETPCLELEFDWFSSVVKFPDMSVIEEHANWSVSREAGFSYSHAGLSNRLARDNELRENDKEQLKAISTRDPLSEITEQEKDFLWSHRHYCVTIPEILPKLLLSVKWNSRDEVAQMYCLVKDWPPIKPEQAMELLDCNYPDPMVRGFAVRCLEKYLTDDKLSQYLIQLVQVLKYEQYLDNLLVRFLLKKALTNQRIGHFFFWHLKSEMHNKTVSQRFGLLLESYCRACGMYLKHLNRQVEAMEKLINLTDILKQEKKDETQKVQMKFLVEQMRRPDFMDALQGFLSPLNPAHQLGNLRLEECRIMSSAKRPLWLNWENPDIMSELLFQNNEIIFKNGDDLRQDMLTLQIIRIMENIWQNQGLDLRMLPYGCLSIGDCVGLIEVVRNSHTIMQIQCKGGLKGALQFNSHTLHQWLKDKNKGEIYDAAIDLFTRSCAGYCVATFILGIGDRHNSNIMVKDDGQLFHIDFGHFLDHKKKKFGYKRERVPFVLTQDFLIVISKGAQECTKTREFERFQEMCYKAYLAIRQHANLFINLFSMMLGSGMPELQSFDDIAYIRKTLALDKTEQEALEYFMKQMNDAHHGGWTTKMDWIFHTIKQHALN
T1 sequence (P27986 whole entry partner): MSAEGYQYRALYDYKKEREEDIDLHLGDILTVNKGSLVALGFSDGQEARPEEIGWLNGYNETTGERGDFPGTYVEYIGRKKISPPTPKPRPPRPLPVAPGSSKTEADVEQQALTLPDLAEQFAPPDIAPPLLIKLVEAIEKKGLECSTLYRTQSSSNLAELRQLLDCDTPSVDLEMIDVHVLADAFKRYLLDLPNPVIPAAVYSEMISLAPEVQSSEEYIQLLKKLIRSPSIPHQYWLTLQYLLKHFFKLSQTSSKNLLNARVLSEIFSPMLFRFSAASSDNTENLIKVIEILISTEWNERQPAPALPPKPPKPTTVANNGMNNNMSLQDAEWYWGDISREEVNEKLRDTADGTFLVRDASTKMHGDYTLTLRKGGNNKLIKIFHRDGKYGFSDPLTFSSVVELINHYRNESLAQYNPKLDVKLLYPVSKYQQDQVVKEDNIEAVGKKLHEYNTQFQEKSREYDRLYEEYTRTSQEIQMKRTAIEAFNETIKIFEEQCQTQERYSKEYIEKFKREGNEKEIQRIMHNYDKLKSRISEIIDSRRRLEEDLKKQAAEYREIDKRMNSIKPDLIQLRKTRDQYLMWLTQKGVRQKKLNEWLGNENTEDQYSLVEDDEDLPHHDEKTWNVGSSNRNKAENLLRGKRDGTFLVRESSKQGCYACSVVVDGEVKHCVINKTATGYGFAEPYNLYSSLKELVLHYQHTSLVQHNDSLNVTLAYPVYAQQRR

Row | IC50 [nM] | SMILES
1 | > 1000 | CC(C)=CC(=O)CCCC(=O)N1CC2(CCN(c3cc(-c4cnc(N)nc4)nc(N4CCOCC4)c3)CC2)C1 [XII-44, 1-(7-(2-(2-aminopyrimidin-5-yl)-6-morpholinopyridin-4-yl)-2,7-diazaspiro[3.5]nonan-2-yl)-7-methyloct-6-ene-1,5-dione]
2 | < 10 | C=CC(=O)Nc1cccc(C(=O)N2CC=C(c3cc4nc(-c5cnc(N)nc5)nc(N5CCOCC5)c4s3)CC2)c1 [II-a-171, N-(3-(4-(2-(2-aminopyrimidin-5-yl)-4-morpholinothieno[3,2-d]pyrimidin-6-yl)-1,2,3,6-tetrahydropyridine-1-carbonyl)phenyl)acrylamide]
3 | < 10 | C/C=C/C(=O)CCC(=O)N1CCN(c2ccc(-c3ccnc4ccc(/C=C5\SC(=O)NC5=O)cc34)cn2)CC1 [V-13, (Z)-5-((4-(6-(4-((E)-4-oxohept-5-enoyl)piperazin-1-yl)pyridin-3-yl)quinolin-6-yl)methylene)thiazolidine-2,4-dione]
4 | > 1000 | C=CC(=O)Nc1ccc(CNC(=O)c2cc(-c3cccc4[nH]ncc34)nc(N3CCOCC3)c2)cc1 [XII-14, N-(4-acrylamidobenzyl)-2-(1H-indazol-4-yl)-6-morpholinoisonicotinamide]
5 | < 10 | CCC/C=C/C(=O)CCC(=O)N1CCN(Cc2cc3nc(-c4cccc5[nH]ncc45)nc(N4CCOCC4)c3s2)CC1 [II-a-63, (E)-1-(4-((2-(1H-indazol-4-yl)-4-morpholinothieno[3,2-d]pyrimidin-6-yl)methyl)piperazin-1-yl)non-5-ene-1,4-dione]
6 | < 10 | C=CC(=O)NCc1ccc(-c2cc3nc(-c4cccc(O)c4)nc(N4CCOCC4)c3s2)cc1 [II-a-65, N-(4-(2-(3-hydroxyphenyl)-4-morpholinothieno[3,2-d]pyrimidin-6-yl)benzyl)acrylamide]
7 | 100 to 1000 | C=CC(=O)N1CCN(c2ccc(-c3cc4nc(-c5cccc6[nH]ncc56)nc(N5CCOCC5)c4s3)cc2)CC1 [II-a-78, 1-(4-(4-(2-(1H-indazol-4-yl)-4-morpholinothieno[3,2-d]pyrimidin-6-yl)phenyl)piperazin-1-yl)prop-2-en-1-one]
8 | 10 to 100 | C/C=C/C(=O)CCCC(=O)N1CCc2ccc(-c3ccnc4ccc(/C=C5\SC(=O)NC5=O)cc34)cc2C1 [V-17, (Z)-5-((4-(2-((E)-5-oxooct-6-enoyl)-1,2,3,4-tetrahydroisoquinolin-7-yl)quinolin-6-yl)methylene)thiazolidine-2,4-dione]
9 | 100 to 1000 | C/C(=C\c1ccccn1)C(=O)CCC(=O)N1CCN(Cc2cc3nc(-c4cccc5[nH]ncc45)nc(N4CCOCC4)c3s2)CC1 [II-a-167, (E)-1-(4-((2-(1H-indazol-4-yl)-4-morpholinothieno[3,2-d]pyrimidin-6-yl)methyl)piperazin-1-yl)-5-methyl-6-(pyridin-2-yl)hex-5-ene-1,4-dione]
10 | > 1000 | C=CC(=O)Nc1ccc(C(=O)N2CCC(n3nc(-c4ccc(OC)c(OC)c4)c4c(N)ncnc43)CC2)cc1 [XI-6, N-(4-(4-(4-amino-3-(3,4-dimethoxyphenyl)-1H-pyrazolo[3,4-d]pyrimidin-1-yl)piperidine-1-carbonyl)phenyl)acrylamide]
11 | 10 to 100 | CC(C)=CC(=O)C(=O)N1CCN(c2cc(C)c(-c3cc(-c4cnc(N)nc4)nc(N4CCOCC4)c3)cn2)CC1 [XII-26, 1-(4-(2′-(2-aminopyrimidin-5-yl)-4-methyl-6′-morpholino-3,4′-bipyridin-6-yl)piperazin-1-yl)-4-methylpent-3-ene-1,2-dione]
12 | > 1000 | CC(C)=CC(=O)CCc1ccc(C#Cc2cc(-c3cnc(N)nc3)nc(N3CCOCC3)c2)cc1 [XII-21, 1-(4-((2-(2-aminopyrimidin-5-yl)-6-morpholinopyridin-4-yl)ethynyl)phenyl)-5-methylhex-4-en-3-one]
13 | 100 to 1000 | C=CC(=O)N1CCN(C2CCC(O)(c3cc4nc(-c5cccc6[nH]ncc56)nc(N5CCOCC5)c4s3)CC2)CC1 (mixture of isomers) [II-a-152, 1-(4-(4-(2-(1H-indazol-4-yl)-4-morpholinothieno[3,2-d]pyrimidin-6-yl)-4-hydroxycyclohexyl)piperazin-1-yl)prop-2-en-1-one]
14 | 100 to 1000 | C=CC(=O)N[C@H]1CC[C@@H](C(=O)N2CCN(Cc3cc4nc(-c5cccc6[nH]ncc56)nc(N5CCOCC5)c4s3)CC2)CC1 [II-a-99]
15 | 100 to 1000 | C/C(=C\c1ccccc1)C(=O)CCC(=O)N1CCN(Cc2cc3nc(-c4cccc5[nH]ncc45)nc(N4CCOCC4)c3s2)CC1 [II-a-168, (E)-1-(4-((2-(1H-indazol-4-yl)-4-morpholinothieno[3,2-d]pyrimidin-6-yl)methyl)piperazin-1-yl)-5-methyl-6-phenylhex-5-ene-1,4-dione]
16 | 100 to 1000 | CC(C)=CC(=O)CCC(=O)N1CCC(C#Cc2cc(-c3cnc(N)nc3)nc(N3CCOCC3)c2)CC1 [XII-31, 1-(4-((2-(2-aminopyrimidin-5-yl)-6-morpholinopyridin-4-yl)ethynyl)piperidin-1-yl)-6-methylhept-5-ene-1,4-dione]
17 | 100 to 1000 | Cn1ccnc1/C=C/C(=O)CCC(=O)N1CCN(Cc2cc3nc(-c4cccc5[nH]ncc45)nc(N4CCOCC4)c3s2)CC1 [II-a-129, (E)-1-(4-((2-(1H-indazol-4-yl)-4-morpholinothieno[3,2-d]pyrimidin-6-yl)methyl)piperazin-1-yl)-6-(1-methyl-1H-imidazol-2-yl)hex-5-ene-1,4-dione]
18 | 10 to 100 | CC(C)=CC(=O)C1(C(=O)N2CC=C(C#Cc3cc(-c4cnc(N)nc4)nc(N4CCOCC4)c3)CC2)CC1 [XII-37, 1-(1-(4-((2-(2-aminopyrimidin-5-yl)-6-morpholinopyridin-4-yl)ethynyl)-1,2,3,6-tetrahydropyridine-1-carbonyl)cyclopropyl)-3-methylbut-2-en-1-one]
19 | > 1000 | CC(C)=CC(=O)CCCCC#Cc1cc(-c2cccc3[nH]ncc23)nc(N2CCOCC2)c1 [XII-7, 10-(2-(1H-indazol-4-yl)-6-morpholinopyridin-4-yl)-2-methyldec-2-en-9-yn-4-one]
20 | > 1000 | C=CC(=O)NCCC(=O)N1CCC[C@@H](n2nc(-c3cc4cc(O)ccc4[nH]3)c3c(N)ncnc32)C1 [XI-4, (R)—N-(3-(3-(4-amino-3-(5-hydroxy-1H-indol-2-yl)-1H-pyrazolo[3,4-d]pyrimidin-1-yl)piperidin-1-yl)-3-oxopropyl)acrylamide]
21 | 100 to 1000 | C=CC(=O)N1CCN(c2ccc(-c3cc(-c4cnc(N)nc4)nc(N4CCOCC4)c3)cn2)CC1 [XII-28, 1-(4-(2′-(2-aminopyrimidin-5-yl)-6′-morpholino-3,4′-bipyridin-6-yl)piperazin-1-yl)prop-2-en-1-one]
22 | 10 to 100 | C/C=C/C(=O)CCC(=O)NCCCC(=O)N1CCN(Cc2cc3nc(-c4cccc5[nH]ncc45)nc(N4CCOCC4)c3s2)CC1 [II-a-19, (E)-N-(4-(4-((2-(1H-indazol-4-yl)-4-morpholinothieno[3,2-d]pyrimidin-6-yl)methyl)piperazin-1-yl)-4-oxobutyl)-4-oxohept-5-enamide]
23 | 10 to 100 | C=CC(=O)NC1CCN(c2ccc(-c3cc4nc(-c5cccc(O)c5)nc(N5CCOCC5)c4s3)cc2)CC1 [II-a-81, N-(1-(4-(2-(3-hydroxyphenyl)-4-morpholinothieno[3,2-d]pyrimidin-6-yl)phenyl)piperidin-4-yl)acrylamide]
24 | 10 to 100 | CC(C)=CC(=O)CN1CCN(c2ccc(-c3cc(-c4cnc(N)nc4)nc(N4CCOCC4)c3)cn2)CC1 [XII-27, 1-(4-(2′-(2-aminopyrimidin-5-yl)-6′-morpholino-3,4′-bipyridin-6-yl)piperazin-1-yl)-4-methylpent-3-en-2-one]
25 | 100 to 1000 | C=CC(=O)N[C@H]1CC[C@H](C(=O)N2CCN(Cc3cc4nc(-c5cccc6[nH]ncc56)nc(N5CCOCC5)c4s3)CC2)CC1 [II-a-100]
26 | < 10 | C=C(C)C(=O)CCC(=O)N1CCC(O)(C#Cc2cc3nc(-c4cccc(O)c4)nc(N4CCOCC4)c3s2)CC1 [II-a-105, 1-(4-hydroxy-4-((2-(3-hydroxyphenyl)-4-morpholinothieno[3,2-d]pyrimidin-6-yl)ethynyl)piperidin-1-yl)-5-methylhex-5-ene-1,4-dione]
27 | 100 to 1000 | CC(C)=CC(=O)C(F)(F)C(F)(F)C(=O)N1CCN(Cc2cc3nc(-c4cccc5[nH]ncc45)nc(N4CCOCC4)c3s2)CC1 [II-a-157, 1-(4-((2-(1H-indazol-4-yl)-4-morpholinothieno[3,2-d]pyrimidin-6-yl)methyl)piperazin-1-yl)-2,2,3,3-tetrafluoro-6-methylhept-5-ene-1,4-dione]
28 | 100 to 1000 | O=C(/C=C/c1ccccc1)CCC(=O)N1CC=C(c2cc3nc(-c4cccc5[nH]ncc45)nc(N4CCOCC4)c3s2)CC1 [II-a-135, (E)-1-(4-(2-(1H-indazol-4-yl)-4-morpholinothieno[3,2-d]pyrimidin-6-yl)-5,6-dihydropyridin-1(2H)-yl)-6-phenylhex-5-ene-1,4-dione]
29 | 10 to 100 | C=CC(=O)N1CCc2cc(-c3cc4nc(-c5cccc(O)c5)nc(N5CCOCC5)c4s3)ccc2C1 [II-a-66, 1-(6-(2-(3-hydroxyphenyl)-4-morpholinothieno[3,2-d]pyrimidin-6-yl)-3,4-dihydroisoquinolin-2(1H)-yl)prop-2-en-1-one]
30 | 100 to 1000 | CC(C)=CC(=O)c1ccc(CCNC(=O)c2cc(-c3cnc(N)nc3)nc(N3CCOCC3)c2)cc1 [XII-10, 2-(2-aminopyrimidin-5-yl)-N-(4-(3-methylbut-2-enoyl)phenethyl)-6-morpholinoisonicotinamide]
